How the values were obtained:
[1] = system: MDA-MB-231 and MDA-MB-453 breast cancer cells; experiment: Cell proliferation in triple negative MDA-MB-231 and MDA-MB-453 cells; format: cell-based; details: Homo sapiens, read-out: IC50 antiproliferative
Procedure: WST-1 assay (Roche, Basel, Switzerland) was used to quantify cell viability as described.[38] Absorbance was measured at 450 nm using a VICTOR X5 PerkinElmer 2030 Multilabel Plate Reader. All assays were performed in triplicate and analyzed using Graph Pad Prism 8.0.

MCF7 cells = experiment: RNA-Seq gene regulation in MCF7 cells; format: cell-based, human
Procedure: For gene expression analysis, total RNA was extracted from cells using Trizol reagent and further cleaned using the Turbo DNase and RNAqueous kits (ThermoFisher). Cells were treated with Veh (0.1% EtOH), or with the compounds indicated for 9 h or 24 h. Once the sample quality and replicate reproducibility were verified, samples from each group were subjected to sequencing. RNA at a concentration of 100 ng/µl in nuclease-free water was used for library construction. cDNA libraries were prepared with the mRNA-TruSeq Kit (Illumina, Inc.). In brief, the poly-A containing mRNA was purified from total RNA, the RNA was fragmented, double-stranded cDNA was generated from fragmented RNA, and adapters were ligated to the ends.
The paired-end read data from the HiSeq 4000 were processed and analyzed through a series of steps. Base calling and de-multiplexing of samples within each lane were done with Casava 1.8.2. The RNA sequences were prepared with Illumina’s TruSeq Stranded mRNAseq Sample Prep kit. Reads were trimmed of adapters and low expression data using Trimmomatic version 0.38.[42] The STAR alignment tool version 2.5.3a was used to align the sequenced reads to the GRCh37 human genome from Ensembl.[43] Gene counts were calculated using subread version 1.5.2.[44],[45] The edgeR Bioconductor package in R was used for normalization and differential expression analysis. Default normalization methods were used, specifically trimmed mean of M values or TMM was used to calculate the normalized expression values. This method calculates the weighted trimmed mean of the log expression ratios in a gene-wise fashion.[46],[47] We considered genes with fold-change > 2 and p-value < 0.05 as statistically significant, differentially expressed.

[2] = Pharmacokinetics in mice after single s.c. or oral dose; format: in vivo, female CD1 mice; details: for AUC / Cmax / half-life: female, CD1, mouse, 40 mg/kg, single dose, plasma
Procedure: The pharmacokinetics of compounds were monitored after single dose administration into female CD1 mice (7–9 weeks of age) via s.c. injection or oral gavage, as described.[39] For s.c. injection, each compound was dissolved in DMSO and then mixed with corn oil for a total injection volume of 100 μL (10% DSMO + 90% corn oil) per mouse. For oral gavage, compounds were administered in a 200 µL formulation of 9/0.5/0.5/90 parts of PEG400/Tween80/Povidone/0.5% Carboxymethylcellulose in DI water. […] Compounds were quantified by LC-MS/MS at the University of Illinois Metabolomics Core Facility. The data were fitted to a non-compartment model.

[3] = system: DT22 breast tumor xenografts; experiment: DT22 human breast tumor xenograft growth in NSG mice; format: in vivo
Procedure: For examination of the effects of compounds on breast tumor growth suppression, intact female NOD/SCID-gamma (NSG) mice were used as detailed previously.[39] DT-22 breast cancer cells (1 × 10^6 cells/mouse) were injected s.c. into the right axial mammary gland. Mice received s.c. injection or oral gavage daily or every second or third day as indicated, with vehicle or treatment compound, and tumor volume (length × width^2/2) was monitored over time.

FOXM1 = biological target: T1, FOXM1 (Homo sapiens, UniProt Q08050); experiment: tr-FRET competitive binding assay with Fl-NB-72 probe; set-up: we attached a terbium donor to purified, full length FOXM1 through a streptavidin-biotin linker; details: displacement of Fl-NB-72 (100 nM), tr-FRET
T1 sequence (Q08050 1-763): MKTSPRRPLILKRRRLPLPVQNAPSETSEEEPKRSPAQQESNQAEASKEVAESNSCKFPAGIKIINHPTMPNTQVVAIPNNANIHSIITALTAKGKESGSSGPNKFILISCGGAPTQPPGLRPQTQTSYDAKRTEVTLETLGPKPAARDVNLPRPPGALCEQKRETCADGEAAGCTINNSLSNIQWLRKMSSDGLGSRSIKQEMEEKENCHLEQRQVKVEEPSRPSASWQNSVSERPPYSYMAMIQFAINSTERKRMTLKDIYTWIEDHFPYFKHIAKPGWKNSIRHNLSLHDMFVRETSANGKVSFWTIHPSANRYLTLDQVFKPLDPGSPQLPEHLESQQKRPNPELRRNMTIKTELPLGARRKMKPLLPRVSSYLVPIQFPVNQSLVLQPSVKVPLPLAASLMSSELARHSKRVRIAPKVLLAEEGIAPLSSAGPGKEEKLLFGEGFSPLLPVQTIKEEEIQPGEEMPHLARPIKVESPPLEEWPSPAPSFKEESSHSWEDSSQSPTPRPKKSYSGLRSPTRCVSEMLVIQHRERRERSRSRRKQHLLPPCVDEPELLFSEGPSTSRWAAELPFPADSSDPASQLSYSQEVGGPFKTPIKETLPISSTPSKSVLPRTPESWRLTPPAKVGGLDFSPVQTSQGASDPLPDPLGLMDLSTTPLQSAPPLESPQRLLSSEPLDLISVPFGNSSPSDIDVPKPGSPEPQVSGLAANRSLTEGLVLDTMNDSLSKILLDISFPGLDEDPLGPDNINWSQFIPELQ
Procedure: Competitive binding assays of compound binding to FOXM1 by tr-FRET were done in FRET buffer (20 mM Tris, pH 7.5, 50 mM NaCl, 0.01% NP-40 detergent, 10% glycerol) with 0.3 mg/ml ovalbumin and 0.1 mM butylated hydroxy-anisole added fresh daily. Solutions of the protein, fluorescent probe and compound dilutions were prepared at 3× concentrations, the final dilution taking place as they were mixed together in equal portions on the microtiter plate.
Final concentrations were 10^−5 M to 10^−9 M, with the last point being buffer only, no compound. Fluorescein-NB-72 (Fl-NB- 72) was prepared at 1 mM in DMF and stored at −20 °C. It was diluted into FRET buffer to give 100 nM in the assay. Incubations were done in duplicate on black Molecular Devices 96-well microtiter plates. 5 μl of Fl-NB-72 and 5 μl of the compound dilutions, were mixed together on the plate. To this was added 5 µl biotin-FoxM1 and incubated in the dark at room temperature, for 1 h. […] To correct for background signals, biotin-FOXM1 was omitted, and diffusion-enhanced FRET incubations were done in duplicate on black Molecular Devices 96-well microtiter plates. Five microliter of Fl-NB-72 and 5 μl of the compound solutions were mixed together and then 5 µl of FRET buffer plus SaTb was added, mixed and incubated in the dark at room temperature, for 1 h. The tr-FRET signals measured as above were subtracted as a background from the first incubations that contained biotin-FOXM1. Graphs were prepared using Graph Pad/Prism 4.

IC50 [1]: 3000 to 5000 nM
PK properties (half-lives and blood levels achieved) ([2]; after oral administration): good PK properties
PK properties (half-lives and blood levels achieved) ([2]; after s.c. administration): good PK properties
AUC ([2]; oral): 35.7 µM·h
Cmax ([2]; oral): 2380 nM
half-life ([2]; oral): 28.8 h
AUC ([2]; sc): 34.7 µM·h
Cmax ([2]; sc): 1200 nM
half-life ([2]; sc): 135 h
IC50 (FOXM1): 1240 nM
Compound: Clc1ccc(C(=C2C3CC4CC(C3)CC2C4)c2ccc(OCCCCCCN3CCCC3)cc2)cc1 [NB-55]
genes regulated that overlapped with NB-73 regulated genes (MCF7 cells; MCF7, 9 h, more than 2-fold, FDR < 0.05): 72%
genes regulated more than 2-fold (Venn diagram) (MCF7 cells; MCF7, 9 h treatment, p < 0.05, FDI-6 20 µM): 567 genes
tumor suppression ([3]; 20 or 40 mg/kg doses (data not shown)): only marginally effective
growth of human breast tumor xenografts ([3]; DT22 tumors, NSG mice, 100 mg/kg oral gavage daily): very effectively suppressed the growth
